# Test results: patent publication US12448389B2, “BRM targeting compounds and associated methods of use” (Prelude Therapeutics Incorporated, priority 2020, dated 2025)
# Legend:
# SMARCA2-HiBiT = target: T1, SMARCA2-HiBiT (Homo sapiens, UniProt P51531); test: SMARCA2 HiBiT degradation assay in HeLa cells; assay type: cell-based; details: 18 hours incubation; for DC50: read-out: HeLa_HiBit-SM2 DC50; for Dmax: HeLa, read-out: HeLa-HiBit-SM2 Dmax (%)
# T1 construct: SMARCA2-HiBiT knock-in Hela monoclonal cell (CS302366); host or cells: HeLa monoclonal knock-in line (CRISPR HiBiT knock-in at the endogenous locus, heterozygous)
# T1 sequence (P51531 whole entry): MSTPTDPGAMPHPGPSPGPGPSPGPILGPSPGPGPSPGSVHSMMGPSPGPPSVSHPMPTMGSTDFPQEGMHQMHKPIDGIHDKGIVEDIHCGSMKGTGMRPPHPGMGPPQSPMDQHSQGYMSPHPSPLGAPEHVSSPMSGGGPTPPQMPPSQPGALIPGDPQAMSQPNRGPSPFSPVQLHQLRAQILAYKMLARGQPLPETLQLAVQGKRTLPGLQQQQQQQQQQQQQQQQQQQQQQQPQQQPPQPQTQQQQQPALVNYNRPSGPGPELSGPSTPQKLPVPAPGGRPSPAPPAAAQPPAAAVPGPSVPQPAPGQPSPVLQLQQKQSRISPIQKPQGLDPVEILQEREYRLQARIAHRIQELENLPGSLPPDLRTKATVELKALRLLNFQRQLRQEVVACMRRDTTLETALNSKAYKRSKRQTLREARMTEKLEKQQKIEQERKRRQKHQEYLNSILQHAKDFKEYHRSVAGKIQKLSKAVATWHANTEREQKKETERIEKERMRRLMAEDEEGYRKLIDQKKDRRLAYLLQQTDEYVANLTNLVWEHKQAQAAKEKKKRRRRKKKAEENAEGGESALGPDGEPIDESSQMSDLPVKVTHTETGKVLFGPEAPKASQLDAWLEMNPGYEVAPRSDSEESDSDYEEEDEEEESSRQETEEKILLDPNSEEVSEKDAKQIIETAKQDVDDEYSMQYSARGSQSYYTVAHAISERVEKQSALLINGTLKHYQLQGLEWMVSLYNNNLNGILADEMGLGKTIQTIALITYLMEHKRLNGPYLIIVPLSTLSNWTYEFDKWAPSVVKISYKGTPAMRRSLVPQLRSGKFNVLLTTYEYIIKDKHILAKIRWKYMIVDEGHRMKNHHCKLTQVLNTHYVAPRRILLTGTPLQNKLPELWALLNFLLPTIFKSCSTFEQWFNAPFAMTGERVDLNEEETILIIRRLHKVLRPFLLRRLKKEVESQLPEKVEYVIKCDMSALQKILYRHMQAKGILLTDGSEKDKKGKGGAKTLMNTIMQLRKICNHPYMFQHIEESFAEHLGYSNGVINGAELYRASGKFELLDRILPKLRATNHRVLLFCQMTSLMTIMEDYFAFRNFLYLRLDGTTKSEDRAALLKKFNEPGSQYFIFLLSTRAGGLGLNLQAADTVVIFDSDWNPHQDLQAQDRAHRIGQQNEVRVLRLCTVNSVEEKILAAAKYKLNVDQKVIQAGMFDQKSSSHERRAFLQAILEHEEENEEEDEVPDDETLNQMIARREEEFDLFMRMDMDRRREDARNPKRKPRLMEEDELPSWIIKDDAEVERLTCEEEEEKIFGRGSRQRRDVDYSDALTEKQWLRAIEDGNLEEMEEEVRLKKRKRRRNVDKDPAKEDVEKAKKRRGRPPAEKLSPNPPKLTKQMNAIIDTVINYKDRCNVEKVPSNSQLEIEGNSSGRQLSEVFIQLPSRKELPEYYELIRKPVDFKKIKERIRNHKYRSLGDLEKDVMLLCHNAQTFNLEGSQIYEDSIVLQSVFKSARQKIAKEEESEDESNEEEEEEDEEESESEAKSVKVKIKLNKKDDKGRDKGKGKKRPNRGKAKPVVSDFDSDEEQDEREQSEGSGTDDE
# Outline: (§1)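 HeLa monoclonal lines with heterozygous HiBiT knock-in were seeded at 2500 cells/well in EMEM with 10% FBS and treated with compound for 18 h at 37 °C. Remaining tagged protein was measured by Nano-Glo HiBiT lytic luminescence after 30–60 min at RT, and values came from curve fitting.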
# SMARCA4-HiBiT = target: T2, SMARCA4-HiBiT (Homo sapiens, UniProt P51532); test: SMARCA4 HiBiT degradation assay in HeLa cells; assay type: cell-based; details: 18 hours incubation; for DC50: read-out: HeLa-HiBit-SM4 DC50; for Dmax: HeLa, read-out: HeLa-HiBit-SM4 Dmax (%)
# T2 construct: SMARCA4-HiBiT knock-in Hela monoclonal cell (CS3023226); host or cells: HeLa monoclonal knock-in line (CRISPR HiBiT knock-in at the endogenous locus, heterozygous)
# T2 sequence (P51532 whole entry): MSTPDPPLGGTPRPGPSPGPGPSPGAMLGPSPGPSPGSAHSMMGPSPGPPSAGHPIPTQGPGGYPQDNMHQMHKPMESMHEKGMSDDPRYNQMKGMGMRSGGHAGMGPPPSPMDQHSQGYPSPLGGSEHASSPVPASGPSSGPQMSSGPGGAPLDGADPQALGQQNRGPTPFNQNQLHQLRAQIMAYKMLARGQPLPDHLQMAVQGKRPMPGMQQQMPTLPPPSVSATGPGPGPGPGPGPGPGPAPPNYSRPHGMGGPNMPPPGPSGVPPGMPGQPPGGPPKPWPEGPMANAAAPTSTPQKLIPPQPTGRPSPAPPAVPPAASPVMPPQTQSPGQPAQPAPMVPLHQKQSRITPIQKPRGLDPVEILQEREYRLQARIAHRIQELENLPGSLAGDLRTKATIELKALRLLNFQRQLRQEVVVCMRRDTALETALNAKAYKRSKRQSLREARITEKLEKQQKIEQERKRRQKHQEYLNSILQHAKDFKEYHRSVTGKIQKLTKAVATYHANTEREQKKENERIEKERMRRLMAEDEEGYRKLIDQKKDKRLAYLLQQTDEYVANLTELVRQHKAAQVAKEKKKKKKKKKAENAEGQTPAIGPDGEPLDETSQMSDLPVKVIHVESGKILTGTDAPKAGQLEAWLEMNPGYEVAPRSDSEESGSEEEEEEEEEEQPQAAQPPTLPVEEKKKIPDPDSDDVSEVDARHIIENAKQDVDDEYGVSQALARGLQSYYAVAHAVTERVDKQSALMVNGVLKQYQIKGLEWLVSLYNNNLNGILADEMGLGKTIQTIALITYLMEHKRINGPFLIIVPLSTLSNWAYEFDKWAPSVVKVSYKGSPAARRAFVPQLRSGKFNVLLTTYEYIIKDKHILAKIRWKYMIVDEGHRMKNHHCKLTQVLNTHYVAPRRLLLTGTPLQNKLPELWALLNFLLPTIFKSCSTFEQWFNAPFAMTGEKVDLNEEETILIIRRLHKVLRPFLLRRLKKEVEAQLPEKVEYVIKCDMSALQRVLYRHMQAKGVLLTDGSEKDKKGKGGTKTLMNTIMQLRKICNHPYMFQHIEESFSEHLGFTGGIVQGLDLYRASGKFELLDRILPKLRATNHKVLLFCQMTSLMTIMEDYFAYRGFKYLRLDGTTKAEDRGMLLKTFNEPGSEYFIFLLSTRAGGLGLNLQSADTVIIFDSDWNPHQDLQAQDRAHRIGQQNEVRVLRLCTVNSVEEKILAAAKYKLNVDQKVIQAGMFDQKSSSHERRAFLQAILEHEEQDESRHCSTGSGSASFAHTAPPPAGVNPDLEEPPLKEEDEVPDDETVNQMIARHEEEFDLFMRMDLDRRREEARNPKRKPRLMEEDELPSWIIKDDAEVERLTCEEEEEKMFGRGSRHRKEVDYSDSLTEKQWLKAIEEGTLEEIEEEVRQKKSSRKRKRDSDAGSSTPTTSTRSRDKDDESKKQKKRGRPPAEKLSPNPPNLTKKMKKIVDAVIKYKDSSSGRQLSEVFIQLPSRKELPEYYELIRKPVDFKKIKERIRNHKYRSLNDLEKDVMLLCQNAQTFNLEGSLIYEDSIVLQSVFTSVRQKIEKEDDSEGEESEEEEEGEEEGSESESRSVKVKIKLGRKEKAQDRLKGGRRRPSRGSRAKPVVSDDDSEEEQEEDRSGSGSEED
# Outline: as §1
DC50 (SMARCA2-HiBiT),Dmax (SMARCA2-HiBiT),DC50 (SMARCA4-HiBiT),Dmax (SMARCA4-HiBiT),HeLa-HiBit-SM4 Dmax (%) (SMARCA4-HiBiT),Structure (SMILES)
< 10 nM,> 85%,10 to 100 nM,> 85%,,"O=C1CCC(N2Cc3ccc(C4CCN(CCN5CCC(CN6CCN7c8cc(-c9ccccc9O)nnc8NC[C@H]7C6)CC5)CC4)cc3C2=O)C(=O)N1 (stereo partly drawn) [Example 120, 3-(6-(1-(2-(4-(((S)-2-(2-hydroxyphenyl)-5,6,6a,7,9,10-hexahydro-8H-pyrazino[1′,2′:4,5]pyrazino[2,3-c]pyridazin-8-yl)methyl)piperidin-1-yl)ethyl)piperidin-4-yl)-1-oxoisoindolin-2-yl) piperidine-2,6-dione]"
< 10 nM,> 85%,< 10 nM,> 85%,,"NC1(C(=O)OCN2C(=O)CCC(N3C(=O)c4ccc(N5CCC(CN6CCC(CN7CCN8c9cc(-c%10ccccc%10O)nnc9NC[C@H]8C7)CC6)CC5)cc4C3=O)C2=O)CC1 (stereo partly drawn) [Example 131, (3-(5-(4-((4-(((S)-2-(2-hydroxyphenyl)-5,6,6a,7,9,10-hexahydro-8H-pyrazino[1′,2′:4,5]pyrazino[2,3-c]pyridazin-8-yl)methyl)piperidin-1-yl)methyl)piperidin-1-yl)-1,3-dioxoisoindolin-2-yl)-2,6-dioxopiperidin-1-yl)methyl 1-aminocyclopropane-1-carboxylate]"
< 10 nM,> 85%,< 10 nM,> 85%,,"CC1(C)CN(CC2CCN(c3ccc4c(c3)C(=O)N(C3CCC(=O)NC3=O)C4=O)CC2)CCC1CN1CCN2c3cc(-c4ccccc4O)nnc3NC[C@H]2C1 (stereo partly drawn) [Example 257, 2-(2,6-dioxopiperidin-3-yl)-5-(4-((4-(((S)-2-(2-hydroxyphenyl)-5,6,6a,7,9,10-hexahydro-8H-pyrazino[1′,2′:4,5]pyrazino[2,3-c]pyridazin-8-yl)methyl)-3,3-dimethylpiperidin-1-yl)methyl)piperidin-1-yl)isoindoline-1,3-dione]"
< 10 nM,> 85%,< 10 nM,> 85%,,"O=C1CCC(N2C(=O)c3ccc(N4CCC(CN5CCC(CN6CCN7c8cc(-c9ccccc9O)nnc8NC[C@H]7C6)CC5)CC4)cc3C2=O)C(=O)N1COC(=O)C1(O)CC1 (stereo partly drawn) [Example 130, (3-(5-(4-((4-(((S)-2-(2-hydroxyphenyl)-5,6,6a,7,9,10-hexahydro-8H-pyrazino[1′,2′:4,5]pyrazino[2,3-c]pyridazin-8-yl)methyl)piperidin-1-yl)methyl)piperidin-1-yl)-1,3-dioxoisoindolin-2-yl)-2,6-dioxopiperidin-1-yl)methyl-1-hydroxycyclopropane-1-carboxylate]"
< 10 nM,> 85%,< 10 nM,75 to 85%,,"C[C@@H]1C[C@H](CN2C[C@@H]3[C@H](C2)[C@H]3CN2CCN3c4cc(-c5ccccc5O)nnc4NC[C@H]3C2)CCN1c1ccc2c(c1)C(=O)N(C1CCC(=O)NC1=O)C2=O (stereo partly drawn) [Example 183, 2-(2,6-dioxopiperidin-3-yl)-5-[(2R,4R)-4-[[(1S,5R)-6-[[(10S)-4-(2-hydroxyphenyl)-1,5,6,8,12-pentazatricyclo[8.4.0.02,7]tetradeca-2,4,6-trien-12-yl]methyl]-3-azabicyclo[3.1.0]hexan-3-yl]methyl]-2-methylpiperidin-1-yl] isoindole-1,3-dione]"
< 10 nM,> 85%,< 10 nM,> 85%,,"O=C1CCC(N2C(=O)c3cccc(NCCCN4CCC(N5CCN6c7cc(-c8ccccc8O)nnc7NC[C@H]6C5)CC4)c3C2=O)C(=O)N1 (stereo partly drawn) [Example 70, 2-(2,6-dioxopiperidin-3-yl)-4-((3-(4-((S)-2-(2-hydroxyphenyl)-5,6,6a,7,9,10-hexahydro-8H-pyrazino[1′,2′:4,5]pyrazino[2,3-c]pyridazin-8-yl)piperidin-1-yl)propyl)amino)isoindoline-1,3-dione]"
< 10 nM,> 85%,< 10 nM,> 85%,,"O=C1CCC(N2Cc3ccc(N4CCC(CN5CCC(CN6CCN7c8cc(-c9ccccc9O)nnc8NC[C@H]7C6)CC5CO)CC4)cc3C2=O)C(=O)N1 (stereo partly drawn) [Example 235, 3-(6-(4-((2-(hydroxymethyl)-4-(((S)-2-(2-hydroxyphenyl)-5,6,6a,7,9,10-hexahydro-8H-pyrazino[1′,2′:4,5]pyrazino[2,3-c]pyridazin-8-yl)methyl)piperidin-1-yl)methyl)piperidin-1-yl)-1-oxoisoindolin-2-yl)piperidine-2,6-dione]"
< 10 nM,> 85%,< 10 nM,> 85%,,"CC1(CN2CCN3c4cc(-c5ccccc5O)nnc4NC[C@H]3C2)CCN(CC2CCN(c3ccc4c(c3)CN(C3CCC(=O)NC3=O)C4=O)CC2)CC1 (stereo partly drawn) [Example 250, 3-(5-(4-((4-(((S)-2-(2-hydroxyphenyl)-5,6,6a,7,9,10-hexahydro-8H-pyrazino[1′,2′:4,5]pyrazino[2,3-c]pyridazin-8-yl)methyl)-4-methylpiperidin-1-yl)methyl)piperidin-1-yl)-1-oxoisoindolin-2-yl)piperidine-2,6-dione]"
< 10 nM,75 to 85%,< 10 nM,50 to 75%,,"COC1(CN2C[C@@H]3[C@@H](CN4CCN5c6cc(-c7ccccc7O)nnc6NC[C@H]5C4)[C@@H]3C2)CCN(c2ccc3c(c2)C(=O)N(C2CCC(=O)NC2=O)C3=O)CC1 (stereo partly drawn) [Example 89, 2-(2,6-dioxopiperidin-3-yl)-5-(4-(((1R,5S,6s)-6-(((S)-2-(2-hydroxyphenyl)-5,6,6a,7,9,10-hexahydro-8H-pyrazino[1′,2′:4,5]pyrazino[2,3-c]pyridazin-8-yl)methyl)-3-azabicyclo[3.1.0]hexan-3-yl)methyl)-4-methoxypiperidin-1-yl)isoindoline-1,3-dione]"
< 10 nM,> 85%,< 10 nM,> 85%,,"O=C1CCC(N2C(=O)c3ccc(N4CCC(CN5CCC(CCCN6CCN7c8cc(-c9ccccc9O)nnc8NC[C@H]7C6)CC5)CC4)cc3C2=O)C(=O)N1 (stereo partly drawn) [Example 228, 2-(2,6-dioxopiperidin-3-yl)-5-(4-((4-(3-((S)-2-(2-hydroxyphenyl)-5,6,6a,7,9,10-hexahydro-8H-pyrazino[1′,2′:4,5]pyrazino[2,3-c]pyridazin-8-yl)propyl)piperidin-1-yl)methyl)piperidin-1-yl)isoindoline-1,3-dione]"
< 10 nM,75 to 85%,10 to 100 nM,,C (C=50%<Dmax<=75%),"O=C1CCC(N2C(=O)c3ccc(N4CC[C@H](CN5C[C@@H]6[C@H](C5)[C@H]6CN5CCN6c7cc(-c8ccccc8O)nnc7NC[C@H]6C5)[C@@H](F)C4)cc3C2=O)C(=O)N1 (stereo partly drawn) [Example 193, 2-(2,6-dioxopiperidin-3-yl)-5-[(3R,4R)-3-fluoro-4-[[(1S,5R)-6-[[(10S)-4-(2-hydroxyphenyl)-1,5,6,8,12-pentazatricyclo[8.4.0.02,7]tetradeca-2(7),3,5-trien-12-yl]methyl]-3-azabicyclo [3.1.0]hexan-3-yl]methyl]piperidin-1-yl]isoindole-1,3-dione]"
< 10 nM,50 to 75%,10 to 100 nM,≤ 50%,,"O=C1CCC(N2Cc3cc(OCCN4CCC(CN5CCN6c7cc(-c8ccccc8O)nnc7NC[C@H]6C5)CC4)ccc3C2=O)C(=O)N1 (stereo partly drawn) [Example 207, 3-(5-(2-(4-(((S)-2-(2-hydroxyphenyl)-5,6,6a,7,9,10-hexahydro-8H-pyrazino[1′,2′:4,5]pyrazino[2,3-c]pyridazin-8-yl)methyl)piperidin-1-yl)ethoxy)-1-oxoisoindolin-2-yl)piperidine-2,6-dione]"
< 10 nM,> 85%,< 10 nM,75 to 85%,,"CC12CNc3nnc(-c4ccccc4O)cc3N1CCN(C1CCN(CCCc3ccc4c(c3)c3cccnc3n4C3CCC(=O)NC3=O)CC1)C2 (stereo not drawn) [Example 25, 3-(6-(3-(4-(2-(2-hydroxyphenyl)-6a-methyl-5,6,6a,7,9,10-hexahydro-8H-pyrazino[1′,2′:4,5]pyrazino[2,3-c]pyridazin-8-yl)piperidin-1-yl)propyl)-9H-pyrido[2,3-b]indol-9-yl)piperidine-2,6-dione]"
< 10 nM,> 85%,< 10 nM,> 85%,,"O=C1CCC(N2Cc3ccc(N4CCN(CCN5CCC(CN6CCN7c8cc(-c9ccccc9O)nnc8NC[C@H]7C6)CC5)CC4)cc3C2=O)C(=O)N1 (stereo partly drawn) [Example 119, 3-(6-(4-(2-(4-(((S)-2-(2-hydroxyphenyl)-5,6,6a,7,9,10-hexahydro-8H-pyrazino[1′,2′:4,5]pyrazino[2,3-c]pyridazin-8-yl)methyl)piperidin-1-yl)ethyl)piperazin-1-yl)-1-oxoisoindolin-2-yl)piperidine-2,6-dione]"
< 10 nM,75 to 85%,10 to 100 nM,75 to 85%,,"CC1(CN2C[C@@H]3[C@@H](CN4CCN5c6cc(-c7ccccc7O)nnc6NC[C@H]5C4)[C@@H]3C2)CN(c2ccc3c(c2)C(=O)N(C2CCC(=O)NC2=O)C3=O)CCO1 (stereo partly drawn) [Example 59, 2-(2,6-dioxopiperidin-3-yl)-5-(2-(((1R,5S,6s)-6-(((S)-2-(2-hydroxyphenyl)-5,6,6a,7,9,10-hexahydro-8H-pyrazino[1′,2′:4,5]pyrazino[2,3-c]pyridazin-8-yl)methyl)-3-azabicyclo[3.1.0]hexan-3-yl)methyl)-2-methylmorpholino)isoindoline-1,3-dione]"
